Patent US20130315843A1, “COMPOSITION FOR REDUCTION OF TRPA1 AND TRPV1 SENSATIONS” (priority 2012, published 2013)
Read-outs that look alike come from different tables or passages of the source.

What was measured:
[1] = target: human TRPA1 (Homo sapiens, UniProt O75762); experiment: FLIPR Ca2+ assay, reduction of hydrogen peroxide activation of TRPA1; assay type: cell-based; parameters: expressed in transfected cells
Experimental: After centrifugation, a pellet of cells was formed in the bottom of the tube separating them from the supernatant solution.
(§1) The pelleted cells were re-suspended in 10 ml assay buffer and 90 μl aliquots (˜50,000 cells) per well delivered to a 96-well assay plate containing 10 μl of test compounds ([…]) or buffer control and incubated at room temperature for 30 minutes.

[2] = target: T1, human TRPV1 (Homo sapiens, UniProt Q8NER1); experiment: FLIPR Ca2+ assay, reduction of hydrogen peroxide activation of TRPV1; assay type: cell-based; parameters: expressed in transfected cells; settings: for Ca++ counts: with compound
T1 sequence (Q8NER1 whole entry): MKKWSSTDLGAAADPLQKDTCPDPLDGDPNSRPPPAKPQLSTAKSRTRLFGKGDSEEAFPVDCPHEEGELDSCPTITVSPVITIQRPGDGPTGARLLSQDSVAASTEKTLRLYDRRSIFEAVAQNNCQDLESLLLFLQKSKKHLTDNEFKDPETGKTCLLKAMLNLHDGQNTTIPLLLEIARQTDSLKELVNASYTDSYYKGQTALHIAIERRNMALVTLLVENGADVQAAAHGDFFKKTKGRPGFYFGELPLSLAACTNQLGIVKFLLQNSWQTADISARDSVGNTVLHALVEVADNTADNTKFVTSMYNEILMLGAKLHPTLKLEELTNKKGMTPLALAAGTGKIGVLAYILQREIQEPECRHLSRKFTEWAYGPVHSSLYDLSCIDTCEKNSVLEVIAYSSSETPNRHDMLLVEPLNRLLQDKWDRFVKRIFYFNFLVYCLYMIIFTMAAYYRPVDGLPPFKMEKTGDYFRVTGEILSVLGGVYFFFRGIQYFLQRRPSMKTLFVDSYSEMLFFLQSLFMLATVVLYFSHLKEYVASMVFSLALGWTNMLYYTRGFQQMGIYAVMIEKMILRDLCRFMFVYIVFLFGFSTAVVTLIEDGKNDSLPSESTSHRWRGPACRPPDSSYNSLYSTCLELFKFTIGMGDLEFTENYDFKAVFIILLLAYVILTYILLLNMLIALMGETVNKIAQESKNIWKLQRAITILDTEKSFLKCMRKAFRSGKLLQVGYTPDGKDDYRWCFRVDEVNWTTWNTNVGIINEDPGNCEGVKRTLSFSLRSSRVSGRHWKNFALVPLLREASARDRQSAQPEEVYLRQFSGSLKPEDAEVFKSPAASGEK
Experimental: (§2) Cells were detached with addition of 10 ml of PBS (phosphate buffered saline) by hand shaking gently. Cells were transferred to a 50 ml tube and centrifuged at 850 rpm for 3 minutes to remove PBS.
The pelleted cells were re-suspended in 10 ml assay buffer and 90 μl aliquots (˜50,000 cells) per well delivered to a 96-well assay plate containing 10 μl of test compounds (1 mM in assay buffer, […]) or buffer control and incubated at room temperature for 30 minutes.

[3] = target: T1, human TRPV1; experiment: FLIPR Ca2+ assay, reduction of capsaicin activation of TRPV1; assay type: cell-based; parameters: expressed in transfected cells; settings: for Ca++ counts: with compound
Experimental: as §2, §1

[4] = Trained sensory panel, burn sensation after brushing with menthol dentifrice; assay type: in vivo, human; parameters: key: 0 = no burning to 60 = highest intensity; 7.5 difference = significant; settings: scale 0-60
Experimental: (§3) For EXAMPLES 6 and 7 sensory evaluation studies of menthol and hydrogen peroxide activity were conducted using a methodology patterned after the techniques described in M. C. Meilgaard, et al., Sensory Evaluation Techniques, 4th Ed. (2007). In one study, a panel of 8-15 trained sensory experts evaluated the menthol or peroxide sensations experienced after brushing with a dentifrice containing the menthol or hydrogen peroxide and the respective TRPA1 or TRPV1 antagonists. Panelists brushed teeth with 1.5 grams of a dentifrice (containing coolant) or control (no coolant) and then expectorated. After brush expectoration, panelists evaluated the burn intensity, assigning a number between 0 (no burning) to 60 ([…]). After rinse expectoration, panelists evaluated burning intensity according to the same 0 to 60 scale. Evaluations were conducted at 5, 15, 30, 45, 60 minute, etc. time points. At each evaluation, panelists were instructed to breathe in through pursed lips and evaluate overall burning sensation. In this test, a numerical score difference from the control of 7.5 indicates user significant differences or definite reduction in burning at the specified time point. Measures between 4.0 to 7.5 indicate a noticeable trend in the specified parameter, which is not statistically significant, but noticeable.
For EXAMPLE 6 (TABLES 8 and 9), a panel of 14 trained sensory experts evaluated the sensory profile experienced after brushing with the dentifrice sample formulations shown in TABLES 6 and 7 containing high levels of menthol followed by rinsing with water. Panelists brushed teeth with 1.5 grams of a test dentifrice (containing high menthol levels) or control (no menthol) for 36 seconds and then expectorated. The dentifrice sample formulations (control and high L-Menthol) are shown below in TABLE 6 (with peppermint flavor) and TABLE 7 (with spearmint flavor). The dentifrices were made using conventional methods and are shown below with component amounts in weight % of total composition. […]
For TABLE 10 all the Samples had the same formulation as Sample E from TABLE 6, except for the Control which lacked menthol. After brushing or mouthwash expectoration, panelists evaluated the burning sensation, assigning a number between 0 (no sensation) to 60 (highest intensity sensation). Evaluations were conducted at 5, 10, 20 and 30 minute time points, following expectoration. At each evaluation, panelists were instructed to breathe in through pursed lips and evaluate overall sensation. In this test, a numerical score of 7.5 indicates a significant user noticeable sensation. Differences less than 7.5, but greater than 5.0 indicate the trending of the data on a specific attribute.

[5] = Trained sensory panel, burning and numbing sensation after hydrogen peroxide mouthwash; assay type: in vivo, human; parameters: key to Burning Sensation: 0 = no sensation, 60 = highest intensity sensation; settings: scale 0-60
Experimental: as §3
For EXAMPLE 7, a panel of 10 trained sensory experts evaluated the sensory profile experienced after rinsing with 30 grams of a test mouthwash (containing hydrogen peroxide and TRPA1 or TRPV1 antagonist) or control (containing hydrogen peroxide and no TRPA1 or TRPV1 antagonist) for 30 seconds and then expectorated. After expectoration, panelists evaluated the sensorial profile (cooling, warming, burning, numbing, and astringency), assigning a number between 0 (no sensation) to 60 (highest intensity sensation). Evaluations were conducted at 2.5, 5, 10, 20, and 30 minute time points, following expectoration at each evaluation, panelists were instructed to breathe in through pursed lips and evaluate overall burning or numbing sensation. The hydrogen peroxide containing mouthwash formulations are shown below in TABLE 11. The mouthwash samples tested comprised a control having the components listed in TABLE 11 by weight % of the composition or the control formulation plus TRPA1 or TRPV1 antagonist, as shown in TABLE 12. The mouthwashes were made using conventional methods and are shown below with amounts in weight % of total composition.

[6] = antagonist 400 μM against 500 μM hydrogen peroxide
[7] = 5 Min After Rinse, dentifrice Sample E (1% menthol) with antagonist levels as E42
[8] = 10 Min After Rinse, dentifrice Sample E (1% menthol) with antagonist levels as E42
[9] = 20 Min After Rinse, dentifrice Sample E (1% menthol) with antagonist levels as E42
[10] = 30 Min After Rinse, dentifrice Sample E (1% menthol) with antagonist levels as E42
[11] = After Expectoration, dentifrice Sample E (1% added menthol) with Apritone 200 ppm, Dihydrojasmone 6 ppm, Isobornyl Isobutyrate 100 ppm, α-heptyl-γ-valerolactone 100 ppm as named
[12] = After Rinse, dentifrice Sample E (1% menthol) with antagonist levels as E42
[13] = 2 Min 30 SEC After Expectoration, H2O2 mouthwash, antagonist levels as E48
[14] = 5 Min After Expectoration, H2O2 mouthwash, antagonist levels as E48
[15] = 10 Min After Expectoration, H2O2 mouthwash, antagonist levels as E48
[16] = 20 Min After Expectoration, H2O2 mouthwash, antagonist levels as E48
[17] = 30 Min After Expectoration, H2O2 mouthwash, antagonist levels as E48
[18] = After Expectoration, H2O2 mouthwash, antagonist levels as E48
[19] = Initial in Mouth, hydrogen peroxide mouthwash (TABLE 11) with Apritone 200 ppm, Isobornyl Isobutyrate 100 ppm, Dihydrojasmone 6 ppm as named, 10 panelists
[20] = antagonist 100 μM against 500 μM hydrogen peroxide

human TRPA1, sequence (O75762 whole entry): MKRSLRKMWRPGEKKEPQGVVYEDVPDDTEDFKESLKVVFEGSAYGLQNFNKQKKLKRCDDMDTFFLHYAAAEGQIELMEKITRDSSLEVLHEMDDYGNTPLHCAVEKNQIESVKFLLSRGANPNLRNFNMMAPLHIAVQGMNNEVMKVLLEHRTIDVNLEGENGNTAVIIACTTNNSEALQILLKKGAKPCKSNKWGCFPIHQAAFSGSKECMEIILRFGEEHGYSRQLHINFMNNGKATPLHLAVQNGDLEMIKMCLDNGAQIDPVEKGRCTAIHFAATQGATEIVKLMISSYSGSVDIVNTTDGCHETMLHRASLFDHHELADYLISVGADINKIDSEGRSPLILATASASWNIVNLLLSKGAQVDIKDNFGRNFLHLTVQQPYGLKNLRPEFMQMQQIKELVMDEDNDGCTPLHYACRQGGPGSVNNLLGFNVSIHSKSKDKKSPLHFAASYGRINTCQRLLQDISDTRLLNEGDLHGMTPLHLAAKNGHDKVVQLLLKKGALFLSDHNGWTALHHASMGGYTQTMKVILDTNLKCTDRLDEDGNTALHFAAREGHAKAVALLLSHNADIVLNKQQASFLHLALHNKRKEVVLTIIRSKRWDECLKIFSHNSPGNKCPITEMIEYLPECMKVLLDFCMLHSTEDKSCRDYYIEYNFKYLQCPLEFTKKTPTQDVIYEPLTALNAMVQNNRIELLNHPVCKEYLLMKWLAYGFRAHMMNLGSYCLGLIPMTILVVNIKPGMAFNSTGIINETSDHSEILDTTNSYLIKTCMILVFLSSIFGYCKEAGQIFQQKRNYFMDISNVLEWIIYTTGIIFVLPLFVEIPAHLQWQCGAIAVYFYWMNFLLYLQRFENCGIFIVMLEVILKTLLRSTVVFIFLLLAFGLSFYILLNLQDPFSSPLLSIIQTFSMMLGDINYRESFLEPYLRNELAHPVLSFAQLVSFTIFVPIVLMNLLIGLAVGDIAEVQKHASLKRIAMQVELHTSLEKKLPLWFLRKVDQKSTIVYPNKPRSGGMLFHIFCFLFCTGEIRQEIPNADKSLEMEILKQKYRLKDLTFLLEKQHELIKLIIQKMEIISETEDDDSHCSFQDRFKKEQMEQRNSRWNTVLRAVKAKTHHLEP

SMILES: Cn1cccc1C=O [1-Methyl-2-pyrole carboxaldehyde]
- reduction of hydrogen peroxide activation of TRPA1, in words [1]: reduced hydrogen peroxide activation of TRPA1
- Block of hydrogen peroxide activation of TRPA1 ([1]; 400 μM antagonist vs 500 μM hydrogen peroxide): BLOCK ONLY H2O2/TRPA1
- % Reduction of Hydrogen Peroxide TRPA1 Activation ([1]; antagonist 400 μM against 200 μM hydrogen peroxide): 42%
- reduction of hydrogen peroxide activation of TRPV1, in words [2]: hydrogen peroxide reduction of TRPV1
- % inhibition of TRPV1 activation by 500 uM H2O2 ([2]; Dose 4000): 79%
- % Reduction of Hydrogen Peroxide TRPV1 Activation [2, 6]: 79%
- Ca++ counts ([2]; Dose 4000, 500 uM H2O2): 380
- % inhibition of TRPV1 activation by 350 nM Capsaicin ([3]; Dose 4000): 3%
- Ca++ counts ([3]; Dose 4000, 350 nM Capsaicin): 11516

SMILES: CCC(C)COC(=O)CC(C)C (stereo not shown) [2-Methylbutyl isovalerate]
- inhibition at 400 µM [2, 6]: 79%
- Ca++ counts ([2]; Dose 4000, 500 uM H2O2): 380
- Ca++ counts ([3]; Dose 4000, 350 nM Capsaicin): 11278

SMILES: CCCCCC(CC)OC(C)=O (stereo not shown) [3-Octyl Acetate]
- inhibition at 400 µM [2, 6]: 90%
- Ca++ counts ([2]; Dose 4000, 500 uM H2O2): 181
- Ca++ counts ([3]; Dose 4000, 350 nM Capsaicin): 12109

SMILES: CC(C)=CCC/C(C)=C/CC1CCCC1=O (stereo not shown) [Apritone]
- Burning Sensation Rating [4, 7]: 13.3
- Burning Sensation Rating [4, 8]: 5.3
- Burning Sensation Rating [4, 9]: 0.0
- Burning Sensation Rating [4, 10]: 0.0
- Burning Sensation Rating [4, 11]: 27.4
- Burning Sensation Rating [4, 12]: 24.0
- Burning Sensation [5, 13]: 20.8
- Numbing Sensation [5, 13]: 12.4
- Burning Sensation [5, 14]: 16.0
- Numbing Sensation [5, 14]: 10.1
- Burning Sensation [5, 15]: 8.6
- Numbing Sensation [5, 15]: 6.0
- Burning Sensation [5, 16]: 3.3
- Numbing Sensation [5, 16]: 4.2
- Burning Sensation [5, 17]: 1.3
- Numbing Sensation [5, 17]: 0.8
- Burning Sensation [5, 18]: 21.9
- Numbing Sensation [5, 18]: 11.6
- Burning Sensation [5, 19]: 12.6
- % inhibition of TRPV1 activation by 500 uM H2O2 ([2]; Dose 1000): 96%
- % Reduction of Hydrogen Peroxide TRPV1 Activation [2, 20]: 96%
- Ca++ counts ([2]; Dose 1000, 500 uM H2O2): 66
- % inhibition of TRPV1 activation by 350 nM Capsaicin ([3]; Dose 1000): 10%
- Ca++ counts ([3]; Dose 1000, 350 nM Capsaicin): 13526

SMILES: CCCCOC(=O)C(C)C [Butyl Isobutyrate]
- inhibition at 400 µM [2, 6]: 58%
- Ca++ counts ([2]; Dose 4000, 500 uM H2O2): 774
- Ca++ counts ([3]; Dose 4000, 350 nM Capsaicin): 11278

SMILES: CC(CC=O)CCCC(C)(C)O (stereo not shown) [Hydroxycitronellal]
- Block of hydrogen peroxide activation of TRPA1 ([1]; 100 μM antagonist vs 500 μM hydrogen peroxide): BLOCK ONLY H2O2/TRPA1
- Average Ca++ Counts ([1]; compound 100 μM against 200 μM hydrogen peroxide, Sets 1-4): 6313.0 Counts
- inhibition at 100 µM ([1]; compound 100 μM against 200 μM hydrogen peroxide, Sets 1-4, read-out: % Reduction of Hydrogen Peroxide TRPA1 Activation): 40.4%
- inhibition at 100 µM [2, 20]: 62%
- Ca++ counts ([2]; Dose 1000, 500 uM H2O2): 627
- Ca++ counts ([3]; Dose 1000, 350 nM Capsaicin): 14728

SMILES: CC(C)C(=O)O[C@@H]1C[C@H]2CC[C@]1(C)C2(C)C [Isobornyl Isobutyrate]
- Burning Sensation Rating [4, 7]: 12.8
- Burning Sensation Rating [4, 8]: 5.6
- Burning Sensation Rating [4, 9]: 0.6
- Burning Sensation Rating [4, 10]: 0.0
- Burning Sensation Rating [4, 11]: 25.4
- Burning Sensation Rating [4, 12]: 22.8
- Burning Sensation [5, 13]: 17.6
- Numbing Sensation [5, 13]: 7.9
- Burning Sensation [5, 14]: 11.4
- Numbing Sensation [5, 14]: 5.8
- Burning Sensation [5, 15]: 5.1
- Numbing Sensation [5, 15]: 2.5
- Burning Sensation [5, 16]: 0.0
- Numbing Sensation [5, 16]: 0.0
- Burning Sensation [5, 17]: 0.0
- Numbing Sensation [5, 17]: 0.0
- Burning Sensation [5, 18]: 20.9
- Numbing Sensation [5, 18]: 8.4
- Burning Sensation [5, 19]: 12.7
- % Reduction of Hydrogen Peroxide TRPA1 Activation [1]: 80%
- Block of hydrogen peroxide activation of TRPA1 [1]: BLOCK ONLY H2O2/TRPA1
- reduction of hydrogen peroxide activation of TRPA1, in words [1]: reduced hydrogen peroxide activation of TRPA1
- reduction of hydrogen peroxide activation of TRPV1, in words [2]: hydrogen peroxide reduction of TRPV1
- % inhibition of TRPV1 activation by 500 uM H2O2 ([2]; Dose 1000): 52%
- % Reduction of Hydrogen Peroxide TRPV1 Activation [2, 20]: 52%
- Ca++ counts ([2]; Dose 1000, 500 uM H2O2): 541
- % inhibition of TRPV1 activation by 350 nM Capsaicin ([3]; Dose 1000): 1.5%
- Ca++ counts ([3]; Dose 1000, 350 nM Capsaicin): 14803
